Where two headings read alike, the source gives them in different places. Where a SMILES comes first, the peptide text is derived from it. The star is where a group is joined. AspCH2OBz(2,6-Me2) = Cc1cccc(C)c1C(=O)OCC(=O)[C@H](CC(=O)O)N*
Assays:
caspase-2 [1] = molecular target: T1, caspase-2 (Homo sapiens, UniProt P42575); assay: Determination of Ki and IC50 inhibition parameters; assay type: biochemical; parameters: made in house; conditions: for Ki: Morrison equation, 15 min pre-incubation with inhibitor at 37 C; for IC50: calculated as IC50=Ki×(1+[S]/Km), substrate NH-Idc-hGlu-Thr(Bzl)-Ser-Asp-ACC 50 uM
T1 sequence (P42575 170-325 limits assumed): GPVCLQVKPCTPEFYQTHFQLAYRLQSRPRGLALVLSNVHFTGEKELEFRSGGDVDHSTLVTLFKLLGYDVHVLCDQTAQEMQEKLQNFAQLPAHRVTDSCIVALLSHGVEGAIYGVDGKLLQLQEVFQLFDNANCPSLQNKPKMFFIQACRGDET
T1 sequence (P42575 348-452 limits assumed): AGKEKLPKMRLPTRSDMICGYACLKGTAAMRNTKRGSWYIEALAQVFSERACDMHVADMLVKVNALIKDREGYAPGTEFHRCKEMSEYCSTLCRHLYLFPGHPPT
Description: (§1) The detailed protocol for the expression and purification of human apoptotic caspases can be found elsewhere (Stennicke, 1999).
(§2) The measurement of Ki and IC50 inhibition parameter of synthesized inhibitors towards caspases-2, -3, and -8 was performed using a fMax spectrofluorimeter (Molecular Devices, Sunnyvale, CA, USA) operating in fluorescence kinetic mode in 96-well Corning (Corning, NY, USA) plates. Before kinetic analysis, all caspases were active site-titrated using the zVAD-fmk inhibitor (Cayman Chemical Company, Cat No. 14467). The caspases assay buffer was 10% w/v sucrose, […], 20 mM Pipes, 10 mM NaCl, 1 mM EDTA, and 10 mM DTT (pH=7.3). Buffers were prepared at room temperature, and all kinetic assays were performed at 37° C. The Ki parameter was measured using the Morrison equation (Copeland, 2000). For each caspase, an appropriate ACC-fluorogenic substrate was used to monitor substrate hydrolysis: NH-Idc-hGlu-Thr(Bzl)-Ser-Asp-ACC (50 uM) for caspase-2, Ac-DEVD-ACC (100 uM) for caspase-3 and Ac-LEHD-ACC (100 uM) for caspase-8. The ACC fluorescence was monitored using 355 nm (excitation) and 460 nm (emission) wavelengths. To meet the criteria for reversible inhibitor kinetics, the lowest inhibitor concentration was at least 4-fold higher that the caspase concentration in the assay. The caspase (60 uL) was first pre-warmed in the assay buffer in the 96-well plate for 15 min at 37 C and then pre-incubated with the inhibitor (20 uL) for another 15 min at 37 C. Next, the substrate (20 uL) was added to the enzyme-inhibitor mixture and the progress of reaction (ACC release) was monitored over time. The Ki parameter was calculated from Morrison equation, and the IC50 parameter was calculated using the formula: IC50=Ki×(1+[S]/Km], where the [S] is substrate concentration used in the assay and Km is a Michaelis-Menten constant for a substrate. All the measurements were performed at least three times and the data was analyzed using GraphPad Prism 7 software.

caspase-3 [2] = molecular target: T2, caspase-3 (Homo sapiens, UniProt P42574); assay: Determination of kobs/I inhibition parameter; assay type: biochemical; conditions: pH 7.3; pseudo-first-order conditions; substrate Ac-DEVD-ACC 100 uM; 37° C.
T2 construct: made in house
T2 sequence (P42574 29-175 limits assumed): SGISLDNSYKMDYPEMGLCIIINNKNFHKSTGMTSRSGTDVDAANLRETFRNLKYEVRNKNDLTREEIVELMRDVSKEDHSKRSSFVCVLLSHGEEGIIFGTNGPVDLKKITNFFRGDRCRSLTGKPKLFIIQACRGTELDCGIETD
T2 sequence (P42574 176-277 limits assumed): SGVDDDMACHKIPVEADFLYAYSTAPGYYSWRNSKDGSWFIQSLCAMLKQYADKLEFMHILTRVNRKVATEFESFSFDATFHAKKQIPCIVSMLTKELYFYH
Description: (§3) The measurement of kobs/l inhibition parameter (second order rate of enzyme inhibition) of synthesized inhibitors towards caspases-2, -3, and -8 was performed using a fMax spectrofluorimeter (Molecular Devices, Sunnyvale, CA, USA) operating in fluorescence kinetic mode in 96-well Corning (Corning, NY, USA) plates. Before kinetic analysis, all caspases were active site-titrated using the zVAD-fmk inhibitor (Cayman Chemical Company, Cat No. 14467). The caspases assay buffer was 10% w/v sucrose, […], 20 mM Pipes, 10 mM NaCl, 1 mM EDTA, and 10 mM DTT (pH=7.3). Buffers were prepared at room temperature, and all kinetic assays were performed at 37° C. The kobs/l parameter was measured under pseudo-first-order kinetic conditions ([I]>>[E]). […] The ACC fluorescence was monitored using 355 nm (excitation) and 460 nm (emission) wavelengths. […] At the same time in a separate tube, the caspase was preincubated in assay buffer at 37 C, and after 15 min, the enzyme was added to wells (60 uL per well, total reaction volume 100 uL) and the fluorescence was monitored for 30 min, starting immediately. Second-order rate of inhibition (Kobs/l) was determined in at least three independent experiments and presented as an average value. […]

caspase-8 [3] = molecular target: T3, caspase-8 (Homo sapiens, UniProt Q14790); assay: Determination of kobs/I inhibition parameter; assay type: biochemical; conditions: pH 7.3; pseudo-first-order conditions; substrate Ac-LEHD-ACC 100 uM; 37° C.
T3 construct: made in house
T3 sequence (Q14790 217-374 limits assumed): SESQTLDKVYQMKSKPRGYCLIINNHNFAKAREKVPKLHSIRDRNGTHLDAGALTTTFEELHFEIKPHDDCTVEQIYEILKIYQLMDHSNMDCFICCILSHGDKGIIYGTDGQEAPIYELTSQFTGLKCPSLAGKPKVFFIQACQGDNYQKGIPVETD
T3 sequence (Q14790 385-479 limits assumed): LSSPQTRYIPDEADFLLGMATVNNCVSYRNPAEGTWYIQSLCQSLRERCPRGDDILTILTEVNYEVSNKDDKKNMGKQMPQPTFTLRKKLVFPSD
Description: as §3

caspase-3 [4] = molecular target: T2, caspase-3; assay: Determination of Ki and IC50 inhibition parameters; assay type: biochemical; conditions: for Ki: Morrison equation, 15 min pre-incubation with inhibitor at 37 C
Description: as §1, §2

caspase-8 [5] = molecular target: T3, caspase-8; assay: Determination of Ki and IC50 inhibition parameters; assay type: biochemical; conditions: for Ki: Morrison equation, 15 min pre-incubation with inhibitor at 37 C
caspase-2 [6] = molecular target: T1, caspase-2; assay: Determination of kobs/I inhibition parameter; assay type: biochemical; parameters: made in house; conditions: pH 7.3; pseudo-first-order conditions; substrate NH-Idc-hGlu-Thr(Bzl)-Ser-Asp-ACC 50 uM; 37° C.
Description: as §3

HepG2 cells = assay: Intracellular lipid accumulation, in vitro cellular model of NASH; assay type: cell-based; parameters: inhibition of intracellular lipid-accumulation: dose or concentration left out as unconfirmed; conditions: for inhibition of intracellular lipid-accumulation: NASH-triggered HepG2 cultures, FIG. 4
Description: HepG2 cells (50.000 cells/well) were plated into 12-multiwell culture dishes on coverslips previously coated with collagen (2 mg/mL collagen solution (BD Biosciences) in PBS incubated at 37° C. for 30 min).
Cells were treated with a “NASH cocktail”: DMEM containing 4.5 mg/mL glucose supplemented with 10% (v/v) FBS, 1% (v/v) PenStrep and 2 mM L-glutamine plus fatty acids (100 μM sodium oleate and 100 μM palmitic acid), 100 nM insulin (all Sigma-Aldrich) and inflammatory cytokines (50 ng/ml tumor necrosis factor, TNF-α (Prospec), 25 ng/ml interleukin IL-1β (Petroteck) and 8 ng/ml transforming growth factor, TGF-β (R&D Systems)). The cells were exposed for 24h to this “NASH cocktail” and KIN compounds were concomitantly added at different concentrations.
At the end of treatments cells were washed with PBS and incubated with staining solution (BODIPY493/503 (Thermo Fisher Scientific) for 15 min at 37° C. Then cells were washed three times with PBS and were fixed in 4% PFA for 30 min at room temperature. After three additional washes with PBS, coverslips were mounted onto glass slides with a drop of Prolong® Gold antifade reagent (Invitrogen) with DAPI overnight at room temperature. Fluorescence micrographs were taken using an Axoimagen M1 microscope (Zeiss, Oberkochen, Germany) and fluorescent signals (DAPI and BODIPY) were quantified using ImageJ (n=10). The intracellular lipid load was calculated as a function of BODIPY™ 493/503 lipid dye area.
An in vitro cellular model of NASH was used to test the efficacy of caspase-2 inhibitors preventing intracellular accumulation of lipids. In this model, HepG2 cells are exposed for 24 h to “NASH conditions” including lipogenic (glucose, insulin, fatty acids) and inflammatory and pro-apoptotic (TNF-α, IL-1β, and TGF-β) triggers. […] This model has shown to correlate with human NASH pathology (Boeckmans et al. 2019).

caspase-2 [7] = molecular target: T1, caspase-2; conditions: state of the art; cited from earlier work
caspase-2 [8] = molecular target: T1, caspase-2; conditions: Poreba et al. (2019); cited from earlier work
caspase-2 [9] = molecular target: T1, caspase-2; assay: Kinetic assay of substrates NH-Idc-P4-P3-Dab-Asp-ACC (Example 4); assay type: biochemical; conditions: substrate 10 μM; caspase-2 10 nM; 37° C.
Description: Prior to kinetic assay, substrates (several L) were diluted in DMSO to the […] (working concentration). Next, 1 μL of such substrate was spot into the well of 96-well plate following by the addition of […] of caspase-2 in buffer. Immediately after the enzyme was added, the plate was placed in fluorescence plate reader and the fluorescence was measured over the time in a kinetic mode (excitation 355 nm, emission 460 nm). The liberation of fluorescence was carried out for 30 minutes, and only linear portion of the plot was taken for analysis to calculate the rate of the reaction. The rate of best cleaved substrate was set to 100% and all other substrates were adjusted accordingly (cleavage rate, %). The final concentration of substrate was 10 μM, and the final concentration of caspase-2 was 10 nM. The caspase-2 assay buffer was 20 mM Pipes, 100 mM NaCl, sucrose 10% (w/v), 10 mM DTT, pH 7.2-7.4. The caspase-2 was preincubated in buffer at 37° C. for 15 min before added to the substrate.

[10] = calculated as IC50=Ki×(1+[S]/Km), substrate Ac-DEVD-ACC 100 uM
[11] = calculated as IC50=Ki×(1+[S]/Km), substrate Ac-LEHD-ACC 100 uM

Row | Ki (caspase-2 [1]) | IC50 (caspase-2 [1]) | Ki (caspase-8 [5]) | Ki (caspase-3 [4]) | IC50 (caspase-3 [4]; [10]) | IC50 (caspase-8 [5]; [11]) | Molecule | inhibition of intracellular lipid-accumulation (HepG2 cells) | also measured
1 | 1.1 nM | 12 nM | 209 nM | 29.3 nM | 193 nM | 1540 nM | NH-Idc-hGlu-Thr(Bzl)-Dab-Asp-AOMK [Compound 2] | significantly higher percentage of inhibition than NH-23-C2 compound | –
2 | 0.7 nM | 7.9 nM | 6.2 nM | 1.1 nM | 7.1 nM | 46.2 nM | NH-Idc-hGlu-Thr(Bzl)-Ser-Asp-AOMK [reference compound] | – | Caspase-2 inhibitory activity (caspase-2 [8]): highest Caspase-2 inhibitory activity among the assayed compounds; selectivity for Caspase-3 (caspase-2 [8]): no selectivity for Caspase-3; selectivity for Caspase-8 (caspase-2 [8]): limited selectivity for Caspase-8
3 | 0.8 nM | 8.8 nM | 6.7 nM | 3.8 nM | 24.8 nM | 49.8 nM | NH-Idc-hGlu-Thr(Bzl)-Lys-Asp-AOMK [Compound 1] | significantly higher percentage of inhibition than NH-23-C2 compound | efficacy inhibiting intracellular lipid accumulation (HepG2 cells; HepG2 under NASH conditions, inhibitors at 10, 20 and […], FIG. 5): better efficacy than NH-23-C2

The next lines start with the molecule.

Row | Molecule | Ki (caspase-2 [1]) | IC50 (caspase-2 [1]) | Ki (caspase-8 [5]) | Ki (caspase-3 [4]) | IC50 (caspase-3 [4]; [10]) | IC50 (caspase-8 [5]; [11]) | inhibition of intracellular lipid-accumulation (HepG2 cells) | also measured
4 | CC(=O)N[C@H](C(=O)N[C@@H](CC(=O)O)C(=O)N[C@H](C(=O)N[C@@H](C)C(=O)N[C@@H](CC(=O)O)C(=O)COC(=O)c1c(C)cccc1C)C(C)C)C(C)C [Ac-Val-Asp-Val-Ala-Asp-AOMK, reference compound] (Ac-VDVA-{AspCH2OBz(2,6-Me2)}) | 0.4 nM | 4.9 nM | 2.2 nM | – | – | – | – | kinact/KI (caspase-3 [2]): 1.36e+06 M⁻¹ s⁻¹; kinact/KI (caspase-8 [3]): 98.4 M⁻¹ s⁻¹; IC50 (caspase-3 [4]): 0.1 nM; IC50 (caspase-8 [5]): 16 nM; kinact/KI (caspase-2 [6]): 643 M⁻¹ s⁻¹
5 | Ac-VDVAD-aldehyde | – | – | – | – | – | – | – | potency against caspase-3 compared with caspase-2 (caspase-2 [7]): more potent against caspase-3 than to caspase-2
6 | NH-Idc-hLeu-Thr(Bzl)-Dab-Asc-ACC | – | – | – | – | – | – | – | RFU/s, %, average (cleavage rate, best substrate set to 100%) (caspase-2 [9]): 0.0%
7 | NH-Idc-hGlu-Thr(Bzl)-Orn-Asp-AOMK [Compound 3] | 0.7 nM | 7.4 nM | 43.3 nM | 13.8 nM | 91 nM | 320 nM | significantly higher percentage of inhibition than NH-23-C2 compound | –

Source: patent US20250270255A1, “CASPASE-2 INHIBITOR COMPOUNDS” (KINTSUGI THERAPEUTICS S.L., priority 2021, published 2025)
